The text below walks through data of article PMC6941756 (Biochemistry, 2019).

For this test, the target named is HIV-1 protease KY variant (Human immunodeficiency virus 1, UniProt P12497, L577V/L578M/Q495K, form not given).

The structures appear in SMILES notation. Where only a bound is given, the exact number is not on record here.

In the case of `CC(C)CN(C[C@@H](O)[C@H](Cc1ccccc1)NC(=O)O[C@H]1CO[C@H]2OCC[C@H]21)S(=O)(=O)c1ccc(N)cc1` [DRV, darunavir], the “times more tightly bound than expected under additivity of binding free energies” value (KY variant protease) is listed as “about 3.5 times”. The “increase in Ki compared with the NL4–3 WT protease” value (all of the KY variants vs NL4–3 WT) is at least 500 fold.
